The target of test [1] is T1, human TTK (Homo sapiens, UniProt P33981).
T1 construct: amino terminal GST fusion of full length human TTK; purchased Invitrogen
T1 sequence (P33981 1-857): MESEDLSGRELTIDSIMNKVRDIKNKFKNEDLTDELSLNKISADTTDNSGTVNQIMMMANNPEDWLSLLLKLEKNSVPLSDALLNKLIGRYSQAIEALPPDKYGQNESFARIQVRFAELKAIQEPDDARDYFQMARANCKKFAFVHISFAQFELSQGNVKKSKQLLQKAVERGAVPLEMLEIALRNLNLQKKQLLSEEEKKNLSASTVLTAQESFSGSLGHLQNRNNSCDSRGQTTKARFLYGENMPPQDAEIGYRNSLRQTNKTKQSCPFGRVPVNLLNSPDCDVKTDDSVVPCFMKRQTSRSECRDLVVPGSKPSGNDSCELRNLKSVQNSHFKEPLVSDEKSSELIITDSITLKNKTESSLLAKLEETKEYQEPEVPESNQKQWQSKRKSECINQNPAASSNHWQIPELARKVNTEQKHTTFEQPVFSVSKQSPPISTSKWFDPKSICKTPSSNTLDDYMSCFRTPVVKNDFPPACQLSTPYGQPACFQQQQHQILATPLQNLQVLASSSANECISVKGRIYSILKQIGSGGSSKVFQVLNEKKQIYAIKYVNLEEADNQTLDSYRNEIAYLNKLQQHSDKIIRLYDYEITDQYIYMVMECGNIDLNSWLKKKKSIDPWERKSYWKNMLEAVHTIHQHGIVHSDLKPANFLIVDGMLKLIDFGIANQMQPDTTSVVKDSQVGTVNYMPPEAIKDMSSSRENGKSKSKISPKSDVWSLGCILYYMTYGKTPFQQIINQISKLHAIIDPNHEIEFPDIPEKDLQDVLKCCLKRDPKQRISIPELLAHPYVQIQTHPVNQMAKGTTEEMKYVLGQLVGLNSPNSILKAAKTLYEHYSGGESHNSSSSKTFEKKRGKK
Briefly: TTK inhibition assay (indirect ELISA). It is filed as biochemical. The settings on record: read-out: TTK IC50 Range. (In an ELISA, binding on a coated surface is turned into a signal by an enzyme label.)

Test [2] deals with Breast cancer cells. Briefly: Cancer cell line growth inhibition (SRB assay). It is filed as cell-based. The settings on record: Homo sapiens; MDA-MB-468; read-out: Cancer Cell Line GI50 Range MDA-MB-468. On the technique in general: Sulforhodamine B stains cellular protein and so reports cell mass.
The test system of test [3] is colon cancer cells (HCT116). Put plainly: Cancer cell line growth inhibition (SRB assay). The format is cell-based. The note with it: Homo sapiens, HCT-116, read-out: Cancer Cell Line GI50 Range HCT116.
Test [4] has as its system ovarian cancer cells (PA-1). Put plainly: Cancer cell line growth inhibition (SRB assay). The format is cell-based. The note with it: read-out: Cancer Cell Line GI50 Range PA-1.
In test [5] the test system is TICs (Colon 12). Put plainly: Colon tumor-initiating cell growth inhibition (Alamar Blue). The settings on record: 216 h, 9 days, read-out: Tumor Initiating Cell GI50 Range Colon 12. The format is cell-based. (In general: Alamar Blue is a resazurin reagent that responds to reducing activity.)
The subject of test [6] is TICs (Ovarian 2393A). Briefly: Ovarian tumor-initiating cell growth inhibition (Alamar Blue). It is filed as cell-based. The settings on record: 144 h, 6 days, read-out: Tumor Initiating Cell GI50 Range Ovarain 2393A.
[7] abbreviates: HCT116 colon cancer cells, SRB assay.
The mark [8] stands for this setting: PA-1 ovarian cancer cells, SRB assay.

pIC50: −log10 of the molar value. Where two headings read alike, the source gives them in different places. Where only a bound is given, the exact number is not on record here.

This passage reports IC50 and GI50 results from patent US9580390B2, “Indazole compounds as kinase inhibitors and method of treating cancer with same” (University Health Network, priority 2011, dated 2017).

Regarding `O=C(N[C@H](c1ccccc1)C1CC1)c1ccc2[nH]nc(-c3ccc(N4C5CCC4CC(O)C5)cc3)c2c1` (stereo partly drawn) [Example A362, N-((S)-cyclopropyl(phenyl)methyl)-3-(4-((1R,3S,5S)-3-hydroxy-8-azabicyclo[3.2.1]octan-8-yl)phenyl)-1H-indazole-5-carboxamide], in test [1], the pIC50 was greater than 7.00. Further, the GI50 in test [2] was less than 100 nM; in test [3], less than 100 nM; in test [4] (Homo sapiens, PA-1), less than 100 nM; in test [5] (Colon 12 TICs), less than 100 nM; in test [6] (Ovarian 2393A TICs) it was less than 100 nM.

On to `CN1[C@@H]2CC[C@H]1C[C@@H](Oc1ccc(-c3n[nH]c4ccc(C(=O)NCC5(c6ccccc6)CCOCC5)cc34)cc1)C2` [Example A484, 3-(4-(((1R,3R,5S)-8-methyl-8-azabicyclo[3.2.1]octan-3-yl)oxy)phenyl)-N-((4-phenyltetrahydro-2H-pyran-4-yl)methyl)-1H-indazole-5-carboxamide], for which, in test [1], the pIC50 is greater than 7.00. Moreover, the GI50 is 100 to 500 nM in test [2]; less than 100 nM in test [3]; less than 100 nM in test [4] (Homo sapiens, PA-1); 100 to 500 nM in test [5] (Colon 12 TICs); 100 to 500 nM in test [6] (Ovarian 2393A TICs).

For the compound `O=C(N[C@H](c1ccccc1F)C1CC1)c1ccc2[nH]nc(-c3ccc(N4C5CCC4CC(O)C5)cc3)c2c1` (stereo partly drawn) [Example A265, N-((S)-cyclopropyl(2-fluorophenyl)methyl)-3-(4-((1R,3R,5S)-3-hydroxy-8-azabicyclo[3.2.1]octan-8-yl)phenyl)-1H-indazole-5-carboxamide], the pIC50 in test [1] is greater than 7.00. The GI50 in test [2] is less than 100 nM; in test [3], less than 100 nM; in test [4] (Homo sapiens, PA-1), less than 100 nM; in test [5] (Colon 12 TICs) it was less than 100 nM; in test [6] (Ovarian 2393A TICs) it was less than 100 nM.

With `CN1CCC(Oc2ccc(-c3n[nH]c4ccc(C(=O)N[C@@H](c5ccccn5)C5CC5)cc34)cc2Cl)CC1` [Example A386, (R)-3-(3-chloro-4-((1-methylpiperidin-4-yl)oxy)phenyl)-N-(cyclopropyl(pyridin-2-yl)methyl)-1H-indazole-5-carboxamide], the pIC50 in test [1] was greater than 7.00. The GI50 in test [2] is greater than 500 nM; in test [3] it was 100 to 500 nM; in test [4] (Homo sapiens, PA-1), 100 to 500 nM; in test [5] (Colon 12 TICs) it was 100 to 500 nM; in test [6] (Ovarian 2393A TICs), greater than 500 nM.

Regarding `O=C(N[C@H](c1ccccn1)C1CC1)c1ccc2[nH]nc(-c3ccc4c(c3)C(=O)CC3(CCN(C5COC5)CC3)O4)c2c1` [Example A264, (S)-N-(cyclopropyl(pyridin-2-yl)methyl)-3-(1′-(oxetan-3-yl)-4-oxospiro[chroman-2,4′-piperidin]-6-yl)-1H-indazole-5-carboxamide], the pIC50 in test [1] is greater than 7.00. Also, the GI50 in test [2] was less than 100 nM; in test [3] it was less than 100 nM; in test [4] (Homo sapiens, PA-1) it was less than 100 nM; in test [5] (Colon 12 TICs), 100 to 500 nM; in test [6] (Ovarian 2393A TICs) it was 100 to 500 nM.

In the case of `CN1CCC(Oc2ccc(-c3n[nH]c4ccc(C(=O)NCC5(c6cccnc6)CCCCC5)cc34)cc2)CC1` [Example A482, 3-(4-((1-methylpiperidin-4-yl)oxy)phenyl)-N-((1-(pyridin-3-yl)cyclohexyl)methyl)-1H-indazole-5-carboxamide], in test [1], the pIC50 was greater than 7.00. Further, the GI50 in test [3] (setting [7]) was 100 to 500 nM; in test [4] (setting [8]), 100 to 500 nM; in test [5] (colon TICs, Alamar Blue) it was greater than 500 nM; in test [6] (ovarian TICs, Alamar Blue), greater than 500 nM.

For the compound `CN1CC[C@@H](Oc2ccc(-c3n[nH]c4ccc(C(=O)NCC5(N6CCOCC6)CCCCC5)cc34)cc2)[C@@H](F)C1` [Example A455, 3-(4-(((3S,4R)-3-fluoro-1-methylpiperidin-4-yl)oxy)phenyl)-N-((1-morpholinocyclohexyl)methyl)-1H-indazole-5-carboxamide], in test [1], the pIC50 was greater than 7.00. Besides, the GI50 in test [3] (setting [7]) is less than 100 nM; in test [4] (setting [8]), less than 100 nM; in test [5] (colon TICs, Alamar Blue), 100 to 500 nM; in test [6] (ovarian TICs, Alamar Blue), 100 to 500 nM.

By pIC50 is commonly meant the negative decadic logarithm of the IC50, by convention in mol/L. By GI50 is commonly meant the concentration at which growth is held to half of that of the control.
